Measured values taken from PMC6274087, “New Phragmalin-Type Limonoids from Chukrasia tabularis and Their α-Glucosidase Inhibitory Activity” (Molecules, 2016).

Assays:
[1] = test system: α-glucosidase; experiment: in vitro α-glucosidase inhibitory assay (4-nitrophenyl-α-D-glucopyranoside substrate, OD at 405 nm); details: for α-glucosidase inhibitory activity (result in words): bioactivity screening; for IC50: read-out: IC50 Value, α-glucosidase inhibitory activity, mean ± SD of triplicate experiments, acarbose as positive control
Protocol: The optimized procedure was as follows: 20 μL of 0.2 U/mL α-glucosidase has been added into 0.1mM potassium phosphate buffer (pH 6.8, 112 μL), then mixed with the testing sample (8 μL). After being preincubated at 37 °C for 15 min, 20 μL of 2.5 mmol/L 4-nitrophenyl-α-D-glucopyranoside was added and then mixed. The reaction was carried out at 37 °C for 15 min and stopped by adding 0.2 M solution of Na2CO3 (80 μL). The optical density values of the reaction mixture were the mean values of three measurements, which were performed at 405 nm wavelength.

SMILES	melting point	α-glucosidase inhibitory activity (result in words) [1]	IC50 [1]
CC(=O)OC(C1=CC(O)OC1=O)C1(C)C(OC(C)=O)C(OC(C)=O)C2(O)C34OC(C)(CC13)OC4C1(OC(C)=O)C(OC(C)=O)C3(C)CC1(O)C21COC(=O)CC31 (stereo not drawn) [Compound 1, Chukbularisin A]	201 to 203 °C	–	–
CC(=O)OC1C2(C)CC34OC5(C)OC6(C7CC(=O)OC(c8ccoc8)C7(C)CCC6(O5)C35OC(=O)CC25)C(OC(=O)C(C)C)C14O (stereo not drawn) [Compound 2, Chukbularisin B]	185 to 186 °C	showed inhibitory activities	60 ± 8 µM
COC(=O)CC1C2(C)CC3(O)C(O)(C2OC(C)=O)C(OC(=O)C(C)C)C24OC5(C)OC(C(OC(C)=O)C67CC62C(OC(=O)C(C)C)C(=O)OC7c2ccoc2)C4(O5)C13C (stereo not drawn) [Compound 3, Chukbularisin C]	198 to 199 °C	showed inhibitory activities	40 ± 2 µM
COC(=O)C(OC(C)=O)C1C2(C)CC3(O)C(O)(C2OC(C)=O)C2OC4(C(C)C)OC5(C(OC(C)=O)C(OC(C)=O)C67CC6(C(OC(C)=O)C(=O)OC7c6ccoc6)C25O4)C13C (stereo not drawn) [Compound 4, Chukbularisin D]	190 to 191 °C	showed inhibitory activities	520 ± 39 µM
COC(=O)C(OC(C)=O)C1C2(C)CC3(O)C(OC(=O)C(C)C)(C2OC(C)=O)C2OC4(C)OC5(C(OC(C)=O)C(OC(C)=O)C67CC6(C(OC(C)=O)C(=O)OC7c6ccoc6)C25O4)C13C (stereo not drawn) [Compound 5, Chukbularisin E]	208 to 209 °C	showed inhibitory activities	1090 ± 40 µM
COC(=O)C(OC(C)=O)C1C2(C)CC34OC5(C)OC6(C(O)C(OC(C)=O)C78CC7(C(OC(C)=O)C(=O)OC8c7ccoc7)C6(O5)C(OC(=O)C(C)C)C3(O)C2OC(C)=O)C14C (stereo not drawn) [Compound 8, chubularisin K]	–	showed inhibitory activities	200 ± 57 µM
